Results taken from ChEMBL document CHEMBL3751822, “C1C2-linker substituted 1,5-naphthyridine analogues of oxabicyclooctane-linked NBTIs as broad-spectrum antibacterial agents (part 7)” (Medchemcomm, 2015).
In brackets after ≈: the same amount, converted by molar mass.

Tests used:
Streptococcus pneumoniae = assay: Antibacterial activity against Streptococcus pneumoniae IID553 by micro-broth dilution method; format: functional
Pseudomonas aeruginosa = assay: Antibacterial activity against Pseudomonas aeruginosa PAO1 by micro-broth dilution method; format: functional
Acinetobacter baumannii = assay: Antibacterial activity against Acinetobacter baumannii IID876 by micro-broth dilution method; format: functional
Staphylococcus aureus [1] = assay: Antibacterial activity against Staphylococcus aureus Smith by micro-broth dilution method; format: functional
Escherichia coli = assay: Antibacterial activity against Escherichia coli ATCC 25922 by micro-broth dilution method; format: functional
Enterococcus faecium = assay: Antibacterial activity against Enterococcus faecium VanA by micro-broth dilution method; format: functional
Staphylococcus aureus [2] = assay: Antibacterial activity against methicillin resistant Staphylococcus aureus OIT971 by micro-broth dilution method; format: functional
[3] = target: Voltage-gated inwardly rectifying potassium channel KCNH2 (Homo sapiens, UniProt Q12809); assay: Displacement of MK499 from human ERG
Staphylococcus aureus [4] = assay: Ratio of MIC for quinolone-resistant Staphylococcus aureus MS5935 to MIC for quinolone-sensitive Staphylococcus aureus MS5935; format: functional
[5] = Streptococcus pneumoniae, IID553, read-out: MIC
[6] = Pseudomonas aeruginosa, PAO1, read-out: MIC
[7] = Acinetobacter baumannii, IID876, read-out: MIC
[8] = Staphylococcus aureus, Smith, read-out: MIC
[9] = Escherichia coli, ATCC 25922, read-out: MIC
[10] = Enterococcus faecium, VanA, read-out: MIC
[11] = Staphylococcus aureus, OIT971, read-out: MIC

Voltage-gated inwardly rectifying potassium channel KCNH2, sequence (Q12809 whole entry): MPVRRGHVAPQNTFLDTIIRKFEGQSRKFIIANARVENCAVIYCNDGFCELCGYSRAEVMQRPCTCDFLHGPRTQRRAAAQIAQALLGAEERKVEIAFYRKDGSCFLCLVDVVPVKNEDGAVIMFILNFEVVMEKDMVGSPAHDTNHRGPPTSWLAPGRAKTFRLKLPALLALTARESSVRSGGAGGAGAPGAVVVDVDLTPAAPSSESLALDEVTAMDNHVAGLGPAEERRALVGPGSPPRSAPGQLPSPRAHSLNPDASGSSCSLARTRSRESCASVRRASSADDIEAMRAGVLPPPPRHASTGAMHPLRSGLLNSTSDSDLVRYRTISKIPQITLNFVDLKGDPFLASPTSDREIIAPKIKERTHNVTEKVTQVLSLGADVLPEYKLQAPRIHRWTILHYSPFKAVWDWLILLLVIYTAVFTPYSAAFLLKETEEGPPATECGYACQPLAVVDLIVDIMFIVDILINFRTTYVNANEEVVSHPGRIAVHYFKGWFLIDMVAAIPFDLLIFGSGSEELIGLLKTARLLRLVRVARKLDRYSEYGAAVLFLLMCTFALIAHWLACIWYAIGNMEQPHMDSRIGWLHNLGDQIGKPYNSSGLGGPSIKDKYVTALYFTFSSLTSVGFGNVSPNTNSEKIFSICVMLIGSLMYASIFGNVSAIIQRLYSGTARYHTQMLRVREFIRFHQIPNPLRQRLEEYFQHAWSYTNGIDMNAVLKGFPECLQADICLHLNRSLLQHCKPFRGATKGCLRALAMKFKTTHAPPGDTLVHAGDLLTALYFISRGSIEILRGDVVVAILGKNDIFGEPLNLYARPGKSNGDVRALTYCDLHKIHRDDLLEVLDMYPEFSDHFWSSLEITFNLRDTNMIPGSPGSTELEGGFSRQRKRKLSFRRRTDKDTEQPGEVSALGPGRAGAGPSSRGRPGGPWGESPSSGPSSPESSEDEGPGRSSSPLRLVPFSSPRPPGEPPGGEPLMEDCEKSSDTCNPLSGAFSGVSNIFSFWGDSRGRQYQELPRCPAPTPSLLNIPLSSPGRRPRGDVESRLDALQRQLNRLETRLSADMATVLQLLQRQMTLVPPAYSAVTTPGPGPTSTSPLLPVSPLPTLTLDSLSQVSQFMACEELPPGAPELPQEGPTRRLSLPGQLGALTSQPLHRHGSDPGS

| Compound | MIC (Streptococcus pneumoniae; [5]) [µg/mL] | MIC (Pseudomonas aeruginosa; [6]) [µg/mL] | MIC (Acinetobacter baumannii; [7]) [µg/mL] | MIC (Staphylococcus aureus [1]; [8]) [µg/mL] | MIC (Escherichia coli; [9]) [µg/mL] | MIC (Enterococcus faecium; [10]) [µg/mL] | MIC (Staphylococcus aureus [2]; [11]) [µg/mL] | IC50 [3] [µM] | Ratio (Staphylococcus aureus [4]) | MIC (Streptococcus pneumoniae) [µg/mL] | MIC (Pseudomonas aeruginosa) [µg/mL] | MIC (Acinetobacter baumannii) [µg/mL] | MIC (Staphylococcus aureus [1]) [µg/mL] | MIC (Escherichia coli) [µg/mL] | MIC (Enterococcus faecium) [µg/mL] | MIC (Staphylococcus aureus [2]) [µg/mL] |
| --- | --- | --- | --- | --- | --- | --- | --- | --- | --- | --- | --- | --- | --- | --- | --- | --- |
| COc1ccc2ncc(F)c(CC(C)(O)C34CCC(NCc5ccc6c(n5)NC(=O)CO6)(CC3)CO4)c2n1 (racemic) | 0.5 (≈ 0.955 µM) | 32 (≈ 61.1 µM) | 2 (≈ 3.82 µM) | 0.06 (≈ 0.115 µM) | 8 (≈ 15.3 µM) | 4 (≈ 7.64 µM) | 0.06 (≈ 0.115 µM) | 6.1 | <4 |  |  |  |  |  |  |  |
| COc1ccc2ncc(F)c(C[C@H](OC)C34CCC(NCc5ccc6c(n5)NC(=O)CO6)(CC3)CO4)c2n1 | 2 (≈ 3.82 µM) | 16 (≈ 30.6 µM) | 8 (≈ 15.3 µM) | 0.25 (≈ 0.477 µM) | 16 (≈ 30.6 µM) | 8 (≈ 15.3 µM) | 0.25 (≈ 0.477 µM) |  |  |  |  |  |  |  |  |  |
| COc1ccc2ncc(F)c(C/C(=N\O)C34CCC(NCc5ccc6c(n5)NC(=O)CO6)(CC3)CO4)c2n1 | 2 (≈ 3.83 µM) | 2 (≈ 3.83 µM) | 2 (≈ 3.83 µM) | 0.5 (≈ 0.957 µM) | 2 (≈ 3.83 µM) | 2 (≈ 3.83 µM) | 0.5 (≈ 0.957 µM) | 1.6 | <4 |  |  |  |  |  |  |  |
| COc1ccc2ncc(F)c(CC(OCC(=O)O)C34CCC(NCc5ccc6c(n5)NC(=O)CO6)(CC3)CO4)c2n1 (racemic) | 32 (≈ 56.4 µM) | 32 (≈ 56.4 µM) | 32 (≈ 56.4 µM) | 4 (≈ 7.05 µM) | 32 (≈ 56.4 µM) | 32 (≈ 56.4 µM) | 4 (≈ 7.05 µM) |  |  |  |  |  |  |  |  |  |
| COc1ccc2ncc(F)c(CC(N)C34CCC(NCc5ccc6c(n5)NC(=O)CO6)(CC3)CO4)c2n1 (single isomer, unassigned; (+)) | 2 (≈ 3.93 µM) | 16 (≈ 31.5 µM) | 0.25 (≈ 0.492 µM) | 0.25 (≈ 0.492 µM) | 1 (≈ 1.97 µM) | 8 (≈ 15.7 µM) | 0.25 (≈ 0.492 µM) |  |  |  |  |  |  |  |  |  |
| COc1ccc2ncc(F)c(C/C(=N/O)C34CCC(NCc5ccc6c(n5)NC(=O)CO6)(CC3)CO4)c2n1 | 16 (≈ 30.6 µM) | 16 (≈ 30.6 µM) | 16 (≈ 30.6 µM) | 16 (≈ 30.6 µM) | 16 (≈ 30.6 µM) | 16 (≈ 30.6 µM) | 16 (≈ 30.6 µM) | 5.4 | <4 |  |  |  |  |  |  |  |
| COc1ccc2ncc(F)c([C@@H]3OC(=O)O[C@H]3C34CCC(NCc5ccc6c(n5)NC(=O)CO6)(CC3)CO4)c2n1 (single isomer, unassigned; (-)) | 2 (≈ 3.63 µM) | 16 (≈ 29 µM) | 16 (≈ 29 µM) | 0.25 (≈ 0.453 µM) | 16 (≈ 29 µM) | 8 (≈ 14.5 µM) | 0.25 (≈ 0.453 µM) | 4.9 | <4 |  |  |  |  |  |  |  |
| COc1ccc2ncc(F)c([C@H](O)[C@@H](O)C34CCC(NCc5ccc6c(n5)NC(=O)CO6)(CC3)CO4)c2n1 (single isomer, unassigned; (-)) | 8 (≈ 15.2 µM) | 64 (≈ 122 µM) | 2 (≈ 3.81 µM) | 1 (≈ 1.9 µM) | 16 (≈ 30.4 µM) | 16 (≈ 30.4 µM) | 1 (≈ 1.9 µM) | 36.1 | <4 |  |  |  |  |  |  |  |
| COc1ccc2ncc(F)c(CC(=O)C34CCC(NCc5ccc6c(n5)NC(=O)CO6)(CC3)CO4)c2n1 | 0.25 (≈ 0.493 µM) | 16 (≈ 31.5 µM) | 2 (≈ 3.94 µM) | 0.13 (≈ 0.256 µM) | 16 (≈ 31.5 µM) | 4 (≈ 7.88 µM) | 0.13 (≈ 0.256 µM) |  |  |  |  |  |  |  |  |  |
| COc1ccc2ncc(F)c(CC(NS(C)(=O)=O)C34CCC(NCc5ccc6c(n5)NC(=O)CO6)(CC3)CO4)c2n1 (racemic) | 32 (≈ 54.5 µM) | 32 (≈ 54.5 µM) | 32 (≈ 54.5 µM) | 32 (≈ 54.5 µM) | 32 (≈ 54.5 µM) | 32 (≈ 54.5 µM) | 32 (≈ 54.5 µM) |  |  |  |  |  |  |  |  |  |
| COc1ccc2ncc(F)c(C(O)CC34CCC(NCc5ccc6c(n5)NC(=O)CO6)(CC3)CO4)c2n1 (single isomer, unassigned; (-)) |  |  |  |  |  |  |  | 1.3 |  | 0.25 (≈ 0.491 µM) | 16 (≈ 31.4 µM) | 1 (≈ 1.96 µM) | 0.03 (≈ 0.0589 µM) | 4 (≈ 7.85 µM) | 2 (≈ 3.93 µM) | 0.03 (≈ 0.0589 µM) |
